From patent US11945796B2, “Substituted pyridine derivatives as SARM1 inhibitors” (Nura Bio, Inc., priority 2020, dated 2024) come the findings set out here.

In this test the target is T1, human SARM1(50-724) (Homo sapiens, UniProt Q6SZW1).
T1 construct: 40 nM human SARM1(50-724)
T1 sequence (Q6SZW1 50-724): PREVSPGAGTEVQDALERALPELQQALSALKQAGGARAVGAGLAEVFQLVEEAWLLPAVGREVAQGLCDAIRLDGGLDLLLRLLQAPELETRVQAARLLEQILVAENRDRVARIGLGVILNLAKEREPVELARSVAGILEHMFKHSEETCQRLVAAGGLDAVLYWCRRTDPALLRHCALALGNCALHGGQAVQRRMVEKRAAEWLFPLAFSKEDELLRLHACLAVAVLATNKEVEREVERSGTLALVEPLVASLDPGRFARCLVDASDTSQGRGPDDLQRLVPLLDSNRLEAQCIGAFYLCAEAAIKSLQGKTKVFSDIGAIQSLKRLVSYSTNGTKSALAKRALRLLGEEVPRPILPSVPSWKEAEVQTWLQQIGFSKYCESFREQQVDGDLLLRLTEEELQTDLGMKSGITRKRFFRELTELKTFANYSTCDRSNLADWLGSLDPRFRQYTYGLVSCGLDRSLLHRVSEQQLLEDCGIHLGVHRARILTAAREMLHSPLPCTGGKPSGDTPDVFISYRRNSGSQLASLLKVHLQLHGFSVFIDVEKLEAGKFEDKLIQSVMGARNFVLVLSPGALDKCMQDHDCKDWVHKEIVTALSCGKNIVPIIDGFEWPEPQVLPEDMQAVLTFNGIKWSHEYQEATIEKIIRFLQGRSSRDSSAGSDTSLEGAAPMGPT
The experiment in a line: SARM1 NADase biochemical assay (HPLC peak areas of NAD and NAM). The following applies: for IC50: dose-response, 1:3 serial dilution from 100 μM, 40 nM SARM1, 0.3 mM NMN, 20 μM NAD, 60 min rt. The protocol: The reaction was incubated at room temperature for 60 minutes and quenched with 20 μL of 0.4% formic acid. […] Total run time for each sample was 4 minutes. […] Samples were run at a flow rate of 0.8 mL/min at 55° C. Peak areas of NAD and NAM were determined using OpenLAB CDS (Chem Station edition) software. For dose-response, the compound was diluted serially 1:3 in DMSO and added to the reaction starting at a final compound concentration of 100 μM in 1% DMSO.

The mark [1] stands for this setting: 50 μM compound, NAD peak area, read-out: Avg NAD % inhibition at 50 μM.
[2] abbreviates: 50 μM compound, NAM peak area, read-out: Avg NAM % inhibition at 50 μM.
Setting [3] is: read-out: Avg NAD % inhibition at 50 μM.
[4] abbreviates: read-out: Avg NAM % inhibition at 50 μM.

Where two headings read alike, the source gives them in different places.

The IC50 is the concentration at which inhibition is half-maximal. A low value points to greater potency in that assay. For the compound `C[C@@H](c1ccncc1)n1ccc(NCC(F)(F)F)n1` [Example 2, (S)-1-(1-(Pyridin-4-yl)ethyl)-N-(2,2,2-trifluoroethyl)-1H-pyrazol-3-amine], the IC50 is below 1 µM.

Broadly, the inhibition is the change of the read-out against control, counted positive when it falls. In the case of `O=C(CCc1cccc(Cl)c1)Nc1ccn(Cc2ccncc2)n1` [Example 32, 3-(3-Chlorophenyl)-N-(1-(pyridin-4-ylmethyl)-1H-pyrazol-3-yl)propanamide], the inhibition at 50 µM under setting [1] lay in the range of 0 to 50% and the inhibition at 50 µM under setting [2] fell in the range of 0 to 50%.

With “(S)—N-(2,2-Difluoroethyl)-1-(1-(pyridin-4-yl)ethyl)-1H-pyrazol-3-amine and (R)—N-(2,2-Difluoroethyl)-1-(1-(pyridin-4-yl)ethyl)-1H-pyrazol-3-amine [Example 8b]”, the IC50 was below 1 µM.

For the compound `CC1(C)Oc2ccc(C(=O)Nc3ccn(Cc4ccncc4)n3)cc2O1` [Example 72, 2,2-Dimethyl-N-(1-(pyridin-4-ylmethyl)-1H-pyrazol-3-yl)benzo[d][1,3]dioxole-5-carboxamide], the inhibition at 50 µM lay in the range of 0 to 50% under setting [1] and 0 to 50% under setting [2].

Consider `Cc1cccc(C(=O)Nc2ccn(Cc3ccncc3)n2)c1` [Example 49, 3-Methyl-N-(1-(pyridin-4-ylmethyl)-1H-pyrazol-3-yl)benzamide], for which the inhibition at 50 µM by setting is: under setting [1], 0 to 50%; under setting [2], 0 to 50%.

`FC(F)Cc1ccn(Cc2ccncc2)n1` [Example 102, 4-{[3-(2,2-Difluoroethyl)-1H-pyrazol-1-yl]methyl}pyridine] displayed an IC50 of 1 to 10 µM.

Take `O=S(=O)(Cc1ccccc1)Nc1ccn(Cc2ccncc2)n1` [Example 71, 1-Phenyl-N-(1-(pyridin-4-ylmethyl)-1H-pyrazol-3-yl)methanesulfonamide]: the inhibition at 50 µM runs as follows: under setting [1], 0 to 50%; under setting [2], 0 to 50%.

With `CC(c1ccncc1)n1ccc(C=O)n1` (racemic) [Example 108, (rac)-1-[1-(Pyridin-4-yl)ethyl]-1H-pyrazole-3-carbaldehyde], the inhibition at 50 µM by setting is: under setting [1], 0 to 50%; under setting [2], 0 to 50%.

Regarding `CNc1ccn(Cc2ccncc2)n1` [Example 86, N-Methyl-1-(pyridin-4-ylmethyl)-1H-pyrazol-3-amine], the inhibition at 50 µM is 0 to 50% under setting [1] and 0 to 50% under setting [2].

For the compound `FC(c1ccncc1)c1ccn(CC(F)(F)F)n1` (racemic) [Example 79, (rac)-4-(Fluoro(1-(2,2,2-trifluoroethyl)-1H-pyrazol-3-yl)methyl)pyridine], the IC50 was 10 to 100 µM.

Regarding `O=C(Nc1ccn(Cc2ccncc2)n1)c1ccc2c(c1)CCC2` [Example 40, N-(1-(Pyridin-4-ylmethyl)-1H-pyrazol-3-yl)-2,3-dihydro-1H-indene-5-carboxamide], the inhibition at 50 µM is, setting by setting: under setting [1], 0 to 50%; under setting [2], 0 to 50%.

In turn, `O=C(Nc1ccn(Cc2ccncc2)n1)c1cccc(Cl)c1` [Example 54, 3-Chloro-N-(1-(pyridin-4-ylmethyl)-1H-pyrazol-3-yl)benzamide] returned an IC50 of 10 to 100 µM.

The compound “(R)-3-Fluoro-4-(1-(1-(2,2,2-trifluoroethyl)-1H-pyrazol-3-yl)ethyl)pyridine and (S)-3-Fluoro-4-(1-(1-(2,2,2-trifluoroethyl)-1H-pyrazol-3-yl)ethyl)pyridine [Example 78]” returned an IC50 of 1 to 10 µM.

Regarding “(R)-4-(1-(1-(2,2-Difluoroethyl)-1H-pyrazol-3-yl)ethyl-2,2,2-d3)pyridine and (S)-4-(1-(1-(2,2-Difluoroethyl)-1H-pyrazol-3-yl)ethyl-2,2,2-d3)pyridine [Example 114a]”, the IC50 fell in the range of 1 to 10 µM.

For the compound `CC(=O)Nc1ccn(Cc2ccncc2)n1` [Example 87, N-(1-(Pyridin-4-ylmethyl)-1H-pyrazol-3-yl)acetamide], the inhibition at 50 µM is 0 to 50% under setting [3] and 0 to 50% under setting [4].

For the compound `N#Cc1ccccc1C(=O)Nc1ccn(Cc2ccncc2)n1` [Example 51, 2-Cyano-N-(1-(pyridin-4-ylmethyl)-1H-pyrazol-3-yl)benzamide], the inhibition at 50 µM is, setting by setting: under setting [3], 0 to 50%; under setting [4], 0 to 50%.
